Laboratory results published in ChEMBL document CHEMBL5120865, “Exploration of 6-methyl-7-(Hetero)Aryl-7-Deazapurine ribonucleosides as antileishmanial agents” (Eur J Med Chem, 2022).
“And” between values parts separate entries of the source, which are not always exact repeats. Equal values may be shown once.

Columns and labels:
[1] = Clearance in golden hamster infected with Leishmania infantum MHOM/MA(BE)/67 amastigotes at 50 mg/kg, po SID and measured after 24 hrs by LC-MS/MS analysis; format: ADME, organism-based, Mesocricetus auratus; conditions: in vivo
[2] = Metabolic stability in mouse liver microsomes S9 fraction assessed as CYP450-mediated metabolism by measuring parent compound remaining measured after 15 mins in presence of NADPH; format: ADME, subcellular; conditions: read-out: Stability
[3] = AUC (0 to 8) in golden hamster infected with Leishmania infantum MHOM/MA(BE)/67 amastigotes at 50 mg/kg, po SID and measured after 10 days by LC-MS/MS analysis; format: ADME, organism-based, Mesocricetus auratus; design: dose 50 mg/kg, time 10 day, route po; conditions: in vivo
[4] = Metabolic stability in golden hamster liver microsomes S9 fraction assessed as UGT-mediated metabolism by measuring parent compound remaining measured after 15 mins in presence of NADPH; format: ADME, subcellular, Mesocricetus auratus; conditions: read-out: Stability
[5] = Toxicity in golden hamster infected with Leishmania infantum MHOM/MA(BE)/67 amastigotes assessed as gross pathological changes at 50 mg/kg, po SID and measured after 10 days; format: organism-based, Mesocricetus auratus; conditions: in vivo, 240 h, time 10 day
[6] = Metabolic stability in mouse liver microsomes S9 fraction assessed as UGT-mediated metabolism by measuring parent compound remaining measured after 15 mins in presence of NADPH; format: ADME, subcellular; conditions: read-out: Stability
[7] = AUC (0 to 24) in golden hamster infected with Leishmania infantum MHOM/MA(BE)/67 amastigotes at 50 mg/kg, po SID and measured after 24 hrs by LC-MS/MS analysis; format: ADME, organism-based, Mesocricetus auratus; design: time 24 hrs, dose 50 mg/kg, route po; conditions: in vivo
[8] = Selectivity index, ratio of CC50 for cytotoxicity against human MRC5 cells to EC50 for Trypanosoma cruzi Tulahuen CL2 amastigotes expressing beta galactosidase infected in human MRC5 cells; format: toxicity, cell-based; conditions: read-out: Ratio CC50/EC50
Cytochrome P450 [9] = target: T1, Cytochrome P450 (Homo sapiens, UniProt P04798+P05177+P05181+P08684+P10632+P10635+P11509+P11712+P13584+P20813+P20815+P20853+P24462+P24903+P33260+P33261+P51589+P78329+P98187+Q02928+Q08477+Q16678+Q16696+Q5TCH4+Q6VVX0+Q7Z449+Q8TAV3+Q96SQ9+Q9HB55); assay: Metabolic stability in human liver microsomes S9 fraction assessed as CYP450-mediated metabolism by measuring parent compound remaining measured after 15 mins in presence of NADPH; format: ADME, subcellular; conditions: read-out: Stability
[10] = Metabolic stability in golden hamster liver microsomes S9 fraction assessed as UGT-mediated metabolism by measuring parent compound remaining measured after 60 mins in presence of NADPH; format: ADME, subcellular, Mesocricetus auratus; conditions: read-out: Stability
[11] = target: UDP-glucuronosyltransferases (UGTs) (Homo sapiens, UniProt O60656+O75310+O75795+P06133+P0DTE4+P0DTE5+P16662+P19224+P22309+P22310+P35503+P35504+P36537+P54855+Q6UWM9+Q9BY64+Q9HAW7+Q9HAW8+Q9HAW9); assay: Metabolic stability in human liver microsomes S9 fraction assessed as UGT-mediated metabolism by measuring parent compound remaining measured after 60 mins in presence of NADPH; format: ADME, subcellular; conditions: read-out: Stability
Leishmania infantum [12] = assay: Antileishmanial activity against sodium stibogluconate, potassium antimonyl tartrate and PMM resistant intracellular Leishmania infantum MHOM/FR/96/LEM3323-CI4 PMM promastigotes infected in Swiss mouse peritoneal macrophages assessed as inhibition of parasite growth measured after 96 hrs by microscopic analysis; format: functional, organism-based; conditions: Peritoneal macrophage
[13] = Metabolic stability in golden hamster liver microsomes S9 fraction assessed as CYP450-mediated metabolism by measuring parent compound remaining measured after 30 mins in presence of NADPH; format: ADME, subcellular, Mesocricetus auratus; conditions: read-out: Stability
[14] = AUC (0 to 8) in golden hamster infected with Leishmania infantum MHOM/MA(BE)/67 amastigotes at 50 mg/kg, po SID and measured after 24 hrs by LC-MS/MS analysis; format: ADME, organism-based, Mesocricetus auratus; design: dose 50 mg/kg, time 24 hrs, route po; conditions: in vivo
Cytochrome P450 [15] = target: T1, Cytochrome P450; assay: Metabolic stability in human liver microsomes S9 fraction assessed as CYP450-mediated metabolism by measuring parent compound remaining measured after 30 mins in presence of NADPH; format: ADME, subcellular; conditions: read-out: Stability
[16] = Cmax in golden hamster infected with Leishmania infantum MHOM/MA(BE)/67 amastigotes at 50 mg/kg, po SID and measured after 24 hrs by LC-MS/MS analysis; format: ADME, organism-based, Mesocricetus auratus; design: time 24 hrs, dose 50 mg/kg, route po; conditions: in vivo
Leishmania infantum [17] = assay: Antileishmanial activity against intracellular Leishmania infantum MHOM/MA(BE)/67 amastigotes infected in golden hamster assessed as reduction of amastigote burdens in spleen at 50 mg/kg, po SID for 10 days by geimsa staining based microscopic analysis; format: functional; design: scale not given: the % may be the effect or the level left; conditions: time 10 day

## Cc1ncnc2c1c(-c1cc(Cl)ccn1)cn2[C@@H]1O[C@H](CO)[C@@H](O)[C@H]1O
[1]
  CL/F: 56.6 mL/min/kg
[2]
  remaining at 0.25 h: 109%
[3]
  AUC at 240 h: 2840 ng·h/mL
[4]
  remaining at 0.25 h: 98%
[5]
  Activity: Non-Toxic
[6]
  remaining at 0.25 h: 103%
[7]
  AUC at 24 h: 2080 ng·h/mL
[8]
  selectivity ratio: > 77
Cytochrome P450 [9]
  remaining at 0.25 h: 92%
[10]
  remaining at 1 h: 89%
[11]
  remaining at 1 h: 98%
Leishmania infantum [12]
  EC50: 790 nM
[13]
  remaining at 0.5 h: 95%
[14]
  AUC at 24 h: 1660 ng·h/mL
Cytochrome P450 [15]
  remaining at 0.5 h: 86%
[16]
  Cmax: 1100 ng/mL and 2.9 µM
Leishmania infantum [17]
  Activity: -1.8%
